{"source": "patent US9775348B2", "about": "“Composition comprising a sesterterpene and use thereof as antibiotic and antifungal adjuvant” (RODE PHARMA S.R.L., priority 2012, dated 2017)", "format_in_all_cases": "cell-based", "key": {"[1]": {"system": "Aspergillus niger, ATCC 16404", "experiment": "Fungal test, inhibition halo in Petri dish with central well", "details": "tests with well, 25° C.", "experimental": "(§1) A study about the efficacy of the composition of the present invention to some fungi was conducted. The compositions were tested according to the MIC method. The methodology being used is herein reported.\n(§2) The tested fungi strains were as follows: i) Aspergillus niger, ATCC 16404; ii) Trichoderma viride, ATCC 28020; iii) Penicillium funiculosum ATCC 9644 and iv) Chaetomium globosum, ATCC 16021.\n(§3) For each strain, time by time, a culture in liquid nutrient medium such as SABORAUD DEXEROSE AGAR was made.\n(§4) Freshly-made subcultures were created, and incubated until obtaining an estimated density of […]. The estimate was obtained by spectrophotometric measurement of absorption at 530 nm.\n(§5) Bacteriostatic tests: The tests were performed by placing fungal culture aliquots (set forth in the tables below) in Petri dishes with a central well (1 centimeter diameter) in which the product to be tested was poured. All the plates were incubated at 25° C. The incubation time for solutions A, B, C, D, E and F was 72 hours, while for products. M1, M2 and M3 the time was 30 hours.\n(§6) The results are expressed as inhibition halo diameter being measured over each plate. […] Consequently, a 0 mm diameter denotes an undetectable halo. The described values indicate the average from the minimum and maximum values of halos for each test. Values are expressed in mm of inhibition."}, "[2]": {"system": "Chaetomium globosum, ATCC 16021", "experiment": "Fungal test, inhibition halo in Petri dish with central well", "details": "tests with well, 25° C.", "experimental": "as §1, §2, §3, §4, §5, §6"}, "[3]": {"system": "Penicillium funiculosum ATCC 9644", "experiment": "Fungal test, inhibition halo in Petri dish with central well", "details": "tests with well, 25° C.", "experimental": "as §1, §2, §3, §4, §5, §6"}, "[4]": {"system": "Trichoderma viride, ATCC 28020", "experiment": "Fungal test, inhibition halo in Petri dish with central well", "details": "tests with well, 25° C.", "experimental": "as §1, §2, §3, §4, §5, §6"}, "[5]": {"system": "fungi", "experiment": "Fungal tests, overall conclusion versus fluconazole", "details": "0.07 mg versus 2 mg (about 1:28 ratio); alone or combined with each other", "experimental": "as §1, §2, §5, §6"}, "[6]": {"system": "Escherichia coli ATCC 25922", "experiment": "Bacteriostatic test, inhibition halo in Petri dish with central well", "details": "2 cc of a 0.7% solution equal to 35 mg, diameter does not include the 10 mm central well", "experimental": "(§7) A study about the efficacy of a gascardic acid-based composition referred to as M3 was conducted against some publicly available pathogenic bacteria such as (1) Staphylococcus aureus—ATCC 25923 (190×10^6 UFC/ml) (2) Pseudomonas aeruginosa—ATCC 15442 (305×10^6 UFC/ml) and (3) Escherichia coli—ATCC 25922 (300×10^6 UFC/ml). The composition M3 was tested according to MIC method.\n(§8) The method was carried out as follows. Time by time, a culture of the above-mentioned strains was prepared in a Tryptic soy Agar type growth medium. Freshly-made subcultures were prepared, and incubated until obtaining an estimated density of 1×10^6 cells per ml of culture. The assessment was obtained by spectrophotometric measurement of absorption at known wavelengths.\n(§9) The bacteriostatic tests were performed by placing the bacterial culture in Petri dishes with a central well of 1 cm diameter, containing the 2 cc aliquot of composition M3. Then, the freshly-made subculture was plated over the surrounding medium. Next, the Petri dishes were placed in a thermostatic environment at 30° C. and examined after 24 and 48 ore.\n(§10) The results are expressed as inhibition halo diameter measured over each Petri dish. […] Consequently, a zero mm (0 mm) diameter denotes an undetectable halo. The given average values are obtained by considering the minimum and maximum value of each halo.\n(§11) According to the above-described MIC method, a test where the pathogenic bacteria (1) Staphylococcus aureus ATCC 25923 (2) Pseudomonas aeruginosa ATCC 15442 and (3) Escherichia coli ATCC 25922 were tested along using composition M5 and composition M5+M3 was conducted."}, "[7]": {"system": "Pseudomonas aeruginosa ATCC 15442", "experiment": "Bacteriostatic test, inhibition halo in Petri dish with central well", "details": "2 cc of a 0.7% solution equal to 35 mg, diameter does not include the 10 mm central well", "experimental": "as §7, §8, §9, §10, §11"}, "[8]": {"system": "Staphylococcus aureus ATCC 25923", "experiment": "Bacteriostatic test, inhibition halo in Petri dish with central well", "details": "2 cc of a 0.7% solution equal to 35 mg, diameter does not include the 10 mm central well", "experimental": "as §7, §8, §9, §10, §11"}, "[9]": {"details": "incubation 72 hours, 1 cc per plate"}, "[10]": {"details": "incubation 30 hours, 1 cc (0.07 mg of compound)"}}}
{"compound": "OC(Cn1cncn1)(Cn1cncn1)c1ccc(F)cc1F", "note": "[Test A, Fluconazole, reference compound]", "values": [{"measurement": "mm of inhibition (inhibition halo diameter)", "setting": "[1]; [9]", "result": 1, "unit": "mm"}, {"measurement": "mm of inhibition (inhibition halo diameter)", "setting": "[2]; [9]", "result": "11-17 mm"}, {"measurement": "mm of inhibition (inhibition halo diameter)", "setting": "[3]; [9]", "result": 0, "unit": "mm"}, {"measurement": "mm of inhibition (inhibition halo diameter)", "setting": "[4]; [9]", "result": 0, "unit": "mm"}]}
{"compound": "C=C(C)[C@@H]1CC[C@]2(C(=O)O)CC[C@]3(C)[C@H](CC[C@@H]4[C@@]5(C)CC[C@H](O)C(C)(C)[C@@H]5CC[C@]43C)[C@@H]12", "note": "[Test M1, Betulinic acid]", "values": [{"measurement": "mm of inhibition (inhibition halo diameter)", "setting": "[1]; [10]", "result": "15-16 mm"}, {"measurement": "mm of inhibition (inhibition halo diameter)", "setting": "[2]; [10]", "result": "22-26 mm"}, {"measurement": "mm of inhibition (inhibition halo diameter)", "setting": "[3]; [10]", "result": "12-18 (*) mm"}, {"measurement": "mm of inhibition (inhibition halo diameter)", "setting": "[4]; [10]", "result": "31-34 (*) mm"}]}
{"compound": "C[C@H]1C(=O)CC[C@@H]2[C@]1(C)CC[C@H]1[C@@]2(C)CC[C@@]2(C)[C@@H]3CC(C)(C)CC[C@]3(C)CC[C@]12C", "note": "[Test M2, Fridelin]", "values": [{"measurement": "mm of inhibition (inhibition halo diameter)", "setting": "[1]; [10]", "result": "3-4 mm"}, {"measurement": "mm of inhibition (inhibition halo diameter)", "setting": "[2]; [10]", "result": "5-11 (*) mm"}, {"measurement": "mm of inhibition (inhibition halo diameter)", "setting": "[3]; [10]", "result": "1-1.5 mm"}, {"measurement": "mm of inhibition (inhibition halo diameter)", "setting": "[4]; [10]", "result": "2-6 mm"}, {"measurement": "fungicidal activity compared with M4 (fluconazole)", "setting": "[5]", "result": "strong fungicidal activity than M4"}]}
{"compound": "Gascardic acid [Test M3]", "values": [{"measurement": "Halo in mm (inhibition halo diameter)", "setting": "[6]", "result": 6, "unit": "mm"}, {"measurement": "Halo in mm (inhibition halo diameter)", "setting": "[7]", "result": 6, "unit": "mm"}, {"measurement": "Halo in mm (inhibition halo diameter)", "setting": "[8]", "result": 8, "unit": "mm"}, {"measurement": "mm of inhibition (inhibition halo diameter)", "setting": "[1]; [10]", "result": "15-18 mm"}, {"measurement": "mm of inhibition (inhibition halo diameter)", "setting": "[2]; [10]", "result": "19-26 mm"}, {"measurement": "mm of inhibition (inhibition halo diameter)", "setting": "[3]; [10]", "result": "15-20 (*) mm"}, {"measurement": "mm of inhibition (inhibition halo diameter)", "setting": "[4]; [10]", "result": "16-27 mm"}, {"measurement": "fungicidal activity compared with M4 (fluconazole)", "setting": "[5]", "result": "strong fungicidal activity than M4"}]}
